Literature values as cited in US20200222353A1, “Ketone ester and ketone salt compositions and methods for using the same” (priority 2019, published 2020).

Experiments:
[1] = compared with D-BHB
[2] = in vivo

crossing of the blood-brain barrier (BBB) [2] | Structure (SMILES) | breakdown in the body and use for energy [1]
– | C[C@H](O)CC(=O)O [L-BHB, (3 S)-3-hydroxybutanoic acid] | not to be broken down in the body and used for energy as quickly as D-BHB
cross the blood-brain barrier | C[C@@H](O)CC(=O)O [D-BHB, (3R)-3-hydroxybutanoic acid] | –
